From paper PMC4476799, “Englerin A Agonizes the TRPC4/C5 Cation Channels to Inhibit Tumor Cell Line Proliferation” (PLoS ONE, 2015)
Like-named read-outs stand apart in the source and are kept apart here.

System: cancer cell lines from the cancer cell line encyclopedia (CCLE)
Test: Cell line profiling (CLiP) proliferation experiment
Assay type: cell-based
Details: Homo sapiens; for IC50: read-out: Crossing Point; for EC50: read-out: Inflection Point
Description: Compound profiling experiment and data analysis was performed as previously described. Data was imported and plotted using the Tibco Spotfire DXP application. Lines were categorized as sensitive, intermediate and refractory as follows: Amax<-40 & Inflection Point <2 ~ Sensitive, Amax>-20 & Inflection Point >10 ~ Refractory, all else were called Intermediate. Cancer Cell line HG-U133 Plus 2 data was processed and normalized as described. […] Five sets of refractory cell lines were generated from the pool of refractory cell lines trying to match the lineage composition of the set of sensitive cell lines. The limma package was used as previously described to perform the statistical comparison.

[1] = CHP-212, CHP-212, autonomic_ganglia, NS
[2] = COLO 205, COLO 205, large_intestine, adenocarcinoma
[3] = COLO-668, COLO 668, lung, small_cell_carcinoma
[4] = COR-L279, COR-L279, lung, small_cell_carcinoma
[5] = Calu-6, Calu-6, lung, undifferentiated_carcinoma
[6] = DMS-114, DMS 114, lung, small_cell_carcinoma
[7] = DMS-273, DMS 273, lung, small_cell_carcinoma
[8] = DOHH-2, cell line DOHH-2, haematopoietic_and_lymphoid_tissue
[9] = EFM-19, cell line EFM-19, breast
[10] = FaDu, cell line FaDu, upper_aerodigestive_tract
[11] = G-401, cell line G-401, soft_tissue
[12] = HCC1143, cell line HCC1143, breast

## CC(C)[C@@]12C[C@@H](O)[C@@](C)(O1)[C@@H]1CC[C@@H](C)[C@H]1[C@@H]2OC(=O)/C=C/c1ccccc1 [Englerin B]
CHL-1, CHL-1, skin, NS
  IC50: 26.2 µM
CHL-1, CHL-1 cells
  IC50: 26.2 µM
[1]
  IC50: 22.7 µM
  EC50: 13.9 µM
CHP-212, CHP-212 cells
  EC50: 13.9 µM
CMK, CMK cells
  IC50: > 30 µM
[2]
  IC50: 16.5 µM
  EC50: 11.8 µM
COLO 205, COLO 205 cells
  EC50: 11.8 µM
COLO 320, COLO-320, large_intestine, adenocarcinoma
  IC50: 11 µM
[3]
  IC50: 26 µM
  EC50: 26 µM
COLO-668, COLO 668 cells
  IC50: 26 µM
  EC50: 26 µM
COLO-680N, COLO-680N (oesophagus)
  IC50: > 30 µM
COLO-680N, oesophagus, squamous_cell_carcinoma
  IC50: > 30 µM
COLO-741, COLO 741, skin, NS
  IC50: > 30 µM
  EC50: 11.6 µM
COLO-741, COLO 741 cells
  IC50: > 30 µM
  EC50: 11.6 µM
COLO-800, COLO-800, skin, NS
  IC50: > 30 µM
COLO-800, cell line COLO-800 (skin, NS)
  IC50: > 30 µM
COLO-829, COLO 829, skin, NS
  IC50: > 30 µM
COLO-829, COLO 829 cells
  IC50: > 30 µM
COR-L23, COR-L23 (lung)
  IC50: > 30 µM
COR-L23, COR-L23, lung, large_cell_carcinoma
  IC50: > 30 µM
COR-L47, COR-L47, lung, small_cell_carcinoma
  IC50: > 30 µM
COR-L47, COR-L47 cells
  IC50: > 30 µM
COR-L88, COR-L88 (lung)
  IC50: > 30 µM
COR-L88, COR-L88, lung, small_cell_carcinoma
  IC50: > 30 µM
[4]
  IC50: 6.69 µM
  EC50: 6.69 µM
Calu-1, Calu-1, lung, squamous_cell_carcinoma
  IC50: > 30 µM
Calu-1, cell line Calu-1
  IC50: > 30 µM
Calu-3, Calu-3 (lung)
  IC50: > 30 µM
Calu-3, Calu-3, lung, adenocarcinoma
  IC50: > 30 µM
[5]
  IC50: > 30 µM
  EC50: 11.6 µM
Calu-6, Calu-6 cells
  IC50: > 30 µM
  EC50: 11.6 µM
Caov-3, Caov-3, ovary, adenocarcinoma
  IC50: 15.3 µM
DBTRG-05MG, cell line DBTRG-05MG (central_nervous_system, astrocytoma_Grade_IV)
  IC50: > 30 µM
DBTRG-05MG, central_nervous_system, astrocytoma_Grade_IV
  IC50: > 30 µM
DLD-1, DLD-1, large_intestine, adenocarcinoma
  IC50: 21.7 µM
DMS-79, DMS 79 (lung)
  IC50: > 30 µM
DMS-79, cell line DMS 79, lung
  IC50: > 30 µM
[6]
  IC50: 17.5 µM
  EC50: 11.7 µM
DMS-114, cell line DMS 114
  IC50: 17.5 µM
[7]
  IC50: 16.4 µM
  EC50: 13.7 µM
[8]
  IC50: 13.1 µM
  EC50: 12.9 µM
DU-145, cell line DU 145, prostate
  IC50: 8.94 µM
DV-90, cell line DV-90, lung
  IC50: 18 µM
  EC50: 14.9 µM
Daoy, Daoy (central_nervous_system)
  IC50: > 30 µM
Daoy, central_nervous_system, NS
  IC50: > 30 µM
Detroit 562, Detroit 562, upper_aerodigestive_tract, NS
  IC50: > 30 µM
Detroit 562, cell line Detroit 562
  IC50: > 30 µM
EBC-1, cell line EBC-1, lung
  IC50: 24 µM
  EC50: 11.6 µM
EFM-19, cell line EFM-19 (breast, ductal_carcinoma)
  IC50: > 30 µM
[9]
  IC50: > 30 µM
  EC50: 7.15 µM
EOL1, cell line EOL-1, haematopoietic_and_lymphoid_tissue
  IC50: 11.8 µM
ESS-1, cell line ESS-1, endometrium
  IC50: 18.7 µM
[10]
  IC50: 17.8 µM
  EC50: 12.9 µM
G-361, cell line G-361, skin
  IC50: > 30 µM
G-361, cell line G-361
  IC50: > 30 µM
[11]
  IC50: 14.3 µM
  EC50: 11.9 µM
G-401, cell line G-401
  EC50: 11.9 µM
G-402, cell line G-402, soft_tissue
  IC50: 9.9 µM
GA-10, cell line GA-10, haematopoietic_and_lymphoid_tissue
  IC50: > 30 µM
GA-10, cell line GA-10
  IC50: > 30 µM
GAMG, GAMG (central_nervous_system)
  IC50: > 30 µM
GAMG, cell line GAMG, central_nervous_system
  IC50: > 30 µM
GCIY, cell line GCIY, stomach
  IC50: 15.8 µM
GMS-10, cell line GMS-10, central_nervous_system
  IC50: > 30 µM
GMS-10, cell line GMS-10
  IC50: > 30 µM
Granta-519, cell line GRANTA-519, haematopoietic_and_lymphoid_tissue
  IC50: > 30 µM
Granta-519, cell line GRANTA-519
  IC50: > 30 µM
HCC38, cell line HCC38, breast
  IC50: > 30 µM
HCC38, cell line HCC38
  IC50: > 30 µM
HCC44, cell line HCC-44, lung
  IC50: 22.8 µM
HCC95, cell line HCC-95, lung
  IC50: 27.6 µM
  EC50: 26.7 µM
HCC827, cell line HCC827, lung
  IC50: 19.3 µM
[12]
  IC50: > 30 µM
  EC50: 9.85 µM
